Results from patent US7674819B2 (Warner-Lambert Company LLC, priority 2005, dated 2010).
Numbering of substitutions follows the chain as printed. Where two headings read alike, the source gives them in different places.

Columns and labels:
hAR = target: T1, hAR (Homo sapiens, UniProt P10275); assay: Competitive binding of 3H-DHT to baculovirus/Sf9 generated hAR extracts; details: one hour at 4° C., mean of multiple tests
T1 sequence (P10275 1-920): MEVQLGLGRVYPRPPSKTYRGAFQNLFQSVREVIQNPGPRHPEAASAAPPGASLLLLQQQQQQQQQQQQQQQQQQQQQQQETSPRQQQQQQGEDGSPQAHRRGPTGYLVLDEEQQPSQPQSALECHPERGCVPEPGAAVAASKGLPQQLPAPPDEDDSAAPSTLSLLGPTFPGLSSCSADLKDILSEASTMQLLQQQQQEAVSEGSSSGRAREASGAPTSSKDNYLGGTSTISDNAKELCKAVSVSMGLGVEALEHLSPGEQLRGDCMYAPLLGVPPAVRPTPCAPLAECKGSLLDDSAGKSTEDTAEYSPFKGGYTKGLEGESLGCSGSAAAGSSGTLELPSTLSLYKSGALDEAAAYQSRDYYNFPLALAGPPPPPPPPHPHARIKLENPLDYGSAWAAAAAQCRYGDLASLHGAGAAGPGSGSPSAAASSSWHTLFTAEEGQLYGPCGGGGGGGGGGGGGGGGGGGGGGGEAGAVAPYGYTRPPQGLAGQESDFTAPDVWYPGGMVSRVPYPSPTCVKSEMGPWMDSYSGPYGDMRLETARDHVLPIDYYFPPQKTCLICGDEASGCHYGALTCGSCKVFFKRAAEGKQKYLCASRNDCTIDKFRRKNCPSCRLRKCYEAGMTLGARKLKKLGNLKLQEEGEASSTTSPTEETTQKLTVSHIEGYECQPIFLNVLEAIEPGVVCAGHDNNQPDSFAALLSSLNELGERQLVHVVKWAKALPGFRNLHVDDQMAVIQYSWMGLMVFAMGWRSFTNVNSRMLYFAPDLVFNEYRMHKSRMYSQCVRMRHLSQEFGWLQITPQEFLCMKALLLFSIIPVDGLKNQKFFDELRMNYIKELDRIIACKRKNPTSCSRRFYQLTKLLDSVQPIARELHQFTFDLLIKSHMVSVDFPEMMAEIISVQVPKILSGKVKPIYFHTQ
In short: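 Baculovirus/Sf9-expressed hAR extract incubated with test compound, hydroxylapatite and 1 nM 3H-DHT tracer for 1 h at 4° C, then washed free of unbound tracer. Affinity given as concentration inhibiting half of maximal 3H-DHT binding.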

androgen receptor = target: T2, androgen receptor (Homo sapiens, UniProt P10275); assay: AR Antagonist Cell Assay (MDA-MB453-MMTV clone 54-19, luciferase reporter); format: cell-based; details: inhibition of induction by DHT (final concentration at 100 μM), 17 hr, compound 0.32-1000 nM, mean of multiple tests
T2 sequence (P10275 1-920 Q868H): T1 sequence (P10275 1-920) with Q868H
Experimental: The compounds ability to antagonize the effects of androgen on the androgen receptor were determined in a whole cell assay as described immediately below.
Experimental Procedure for AR Antagonist Cell Assay
This cell line is a stable transfected cell line with MDA-MB453 cell background (a human breast tumor cell line expressing androgen receptor). A MMTV minimal promoter containing ARE was first cloned in front of a firefly luciferase reporter gene. Then the cascade was cloned into transfection vector pUV120puro. […] Puromycin resistant stable cell line was selected.
Cell Culture Media and Reagents:
Plating medium: DMEM (phenol red free), 10% charcoal treated HyClone serum, 1% L-glutamine
Assay medium: DMEM (phenol red free), 1% charcoal treated HyClone serum, 1% L-glutamine, 1% penicillin/streptomycin
Cells are maintained in culture medium, splitting cells when they reach 80-90% confluence
To test compounds, 10,000 cells/well are plated to opaque 96 cell culture plate in 100 ul/well plating medium, culture for overnight at 37° C. in cell culture incubator
Add 10 ul/well freshly prepared DHT (final concentration at […]) to each well, incubate at 37° C. for 17 hr (overnight)
Add 50 ul/well 3× luciferase buffer, incubate at room temperature for 5 minutes, then count on Luminometer
The results are reported as the mean of multiple tests described below (the numbers of tests are indicated in the footnote). N.D. denotes that the compound was not tested.

[1] = IC50, concentration at which one half of maximum binding of 1 nM 3H-DHT to hAR is inhibited
[2] = concentration at which one half of maximum binding of 1 nM 3H-DHT to hAR is inhibited, read-out: IC50

SMILES	IC50 (hAR; [1])	IC50 (androgen receptor)	IC50 (hAR; [2])	IC50 (androgen receptor; read-out: IC50)
CC1(C)CN(Cc2ccccc2C#N)C(=O)C1Oc1ccc(C#N)c(C(F)(F)F)c1 (centres unmarked) [Example 47, 4-[1-(2-Cyano-benzyl)-4,4-dimethyl-2-oxo-pyrrolidin-3-yloxy]-2-trifluoromethyl-benzonitrile]	83 nM	42 nM	–	–
CC1(C)CN(Cc2ccc(C#N)cc2)C(=O)C1Oc1ccc(C#N)c(C(F)(F)F)c1 (centres unmarked) [Example 48, 4-[1-(4-Cyano-benzyl)-4,4-dimethyl-2-oxo-pyrrolidin-3-yloxy]-2-trifluoromethyl-benzonitrile]	–	62 nM	109 nM	–
COc1ccc(Cc2noc(CN3CC(C)(C)C(Oc4ccc(C#N)c(C(F)(F)F)c4)C3=O)n2)cc1 (centres unmarked) [Example 50, 4-{1-[3-(4-Methoxy-benzyl)-[1,2,4]oxadiazol-5-ylmethyl]-4,4-dimethyl-2-oxo-pyrrolidin-3-yloxy}-2-trifluoromethyl-benzonitrile]	–	35 nM	152 nM	–
CC1(C)CN(Cc2nc(-c3ccccc3)no2)C(=O)C1Oc1ccc(C#N)c(C(F)(F)F)c1 (centres unmarked) [Example 52, 4-[4,4-Dimethyl-2-oxo-1-(3-phenyl-[1,2,4]oxadiazol-5-ylmethyl)-pyrrolidin-3-yloxy]-2-trifluoromethyl-benzonitrile]	160 nM	54 nM	–	–
CC1(C)CN(Cc2ccc3ccccc3n2)C(=O)C1Oc1ccc(C#N)c(C(F)(F)F)c1 (centres unmarked) [Example 54, 4-(4,4-Dimethyl-2-oxo-1-quinolin-2-ylmethyl-pyrrolidin-3-yloxy)-2-trifluoromethyl-benzonitrile]	–	–	217 nM	> 1000 nM
CC1(C)CN(Cc2nnc(-c3ccccc3)o2)C(=O)C1Oc1ccc(C#N)c(C(F)(F)F)c1 (centres unmarked) [Example 56, 4-[4,4-Dimethyl-2-oxo-1-(5-phenyl-[1,3,4]oxadiazol-2-ylmethyl)-pyrrolidin-3-yloxy]-2-trifluoromethyl-benzonitrile]	171 nM	735 nM	–	–
CC1(C)CN(Cc2ccc3nonc3c2)C(=O)C1Oc1ccc(C#N)c(C(F)(F)F)c1 (centres unmarked) [Example 57, 4-(1-Benzo[1,2,5]oxadiazol-5-ylmethyl-4,4-dimethyl-2-oxo-pyrrolidin-3-yloxy)-2-trifluoromethyl-benzonitrile]	31 nM	–	–	> 1000 nM
CC1(C)CN(Cc2ccc(-n3cccn3)cc2)C(=O)C1Oc1ccc(C#N)c(C(F)(F)F)c1 (centres unmarked) [Example 60, 4-[4,4-Dimethyl-2-oxo-1-(4-pyrazol-1-yl-benzyl)-pyrrolidin-3-yloxy]-2-trifluoromethyl-benzonitrile]	–	–	115 nM	> 1000 nM
Cc1ccc(-c2nnc(CN3CC(C)(C)C(Oc4ccc(C#N)c(C(F)(F)F)c4)C3=O)o2)cc1 (centres unmarked) [Example 61, 4-[4,4-Dimethyl-2-oxo-1-(5-p-tolyl-[1,3,4]oxadiazol-2-ylmethyl)-pyrrolidin-3-yloxy]-2-trifluoromethyl-benzonitrile]	–	51 nM	101 nM	–
CC1(C)CN(Cc2nc(-c3ccc([N+](=O)[O-])cc3)cs2)C(=O)C1Oc1ccc(C#N)c(C(F)(F)F)c1 (centres unmarked) [Example 65, 4-{4,4-Dimethyl-1-[4-(4-nitro-phenyl)-thiazol-2-ylmethyl]-2-oxo-pyrrolidin-3-yloxy}-2-trifluoromethyl-benzonitrile]	38 nM	–	–	228 nM
COc1ccc(-c2nc(CN3CC(C)(C)C(Oc4ccc(C#N)c(C(F)(F)F)c4)C3=O)no2)cc1 (centres unmarked) [Example 66, 4-{1-[5-(4-Methoxy-phenyl)-[1,2,4]oxadiazol-3-ylmethyl]-4,4-dimethyl-2-oxo-pyrrolidin-3-yloxy}-2-trifluoromethyl-benzonitrile]	–	84 nM	142 nM	–
CSCN1CC(C)(C)C(Oc2ccc(C#N)c(C(F)(F)F)c2)C1=O (centres unmarked) [Example 68, 4-(4,4-Dimethyl-1-methylsulfanylmethyl-2-oxo-pyrrolidin-3-yloxy)-2-trifluoromethyl-benzonitrile]	–	64 nM	133 nM	–
CC1(C)CN(S(=O)(=O)c2ccccc2)C(=O)C1Oc1ccc(C#N)c(C(F)(F)F)c1 (centres unmarked) [Example 73, 4-(1-Benzenesulfonyl-4,4-dimethyl-2-oxo-pyrrolidin-3-yloxy)-2-trifluoromethyl-benzonitrile]	–	49 nM	206 nM	–
COc1cccc(S(=O)(=O)N2CC(C)(C)C(Oc3ccc(C#N)c(C(F)(F)F)c3)C2=O)c1 (centres unmarked) [Example 74, 4-[1-(3-Methoxy-benzenesulfonyl)-4,4-dimethyl-2-oxo-pyrrolidin-3-yloxy]-2-trifluoromethyl-benzonitrile]	–	96 nM	106 nM	–
CCCS(=O)(=O)N1CC(C)(C)C(Oc2ccc(C#N)c(C(F)(F)F)c2)C1=O (centres unmarked) [Example 75, 4-[4,4-Dimethyl-2-oxo-1-(propane-1-sulfonyl)-pyrrolidin-3-yloxy]-2-trifluoromethyl-benzonitrile]	64 nM	16 nM	–	–
CCS(=O)(=O)N1CC(C)(C)C(Oc2ccc(C#N)c(C(F)(F)F)c2)C1=O (centres unmarked) [Example 78, 4-(1-Ethanesulfonyl-4,4-dimethyl-2-oxo-pyrrolidin-3-yloxy)-2-trifluoromethyl-benzonitrile]	–	–	103 nM	246 nM
CC1(C)CN(S(=O)(=O)C2CC2)C(=O)C1Oc1ccc(C#N)c(C(F)(F)F)c1 (centres unmarked) [Example 83, 4-(1-Cyclopropanesulfonyl-4,4-dimethyl-2-oxo-pyrrolidin-3-yloxy)-2-trifluoromethyl-benzonitrile]	50 nM	–	–	205 nM
CC1(C)CN(S(=O)(=O)c2ccsc2)C(=O)C1Oc1ccc(C#N)c(C(F)(F)F)c1 (centres unmarked) [Example 84, 4-[4,4-Dimethyl-2-oxo-1-(thiophene-3-sulfonyl)-pyrrolidin-3-yloxy]-2-trifluoromethyl-benzonitrile]	85 nM	55 nM	–	–
Cc1csc(S(=O)(=O)N2CC(C)(C)C(Oc3ccc(C#N)c(C(F)(F)F)c3)C2=O)c1 (centres unmarked) [Example 86, 4-[4,4-Dimethyl-1-(4-methyl-thiophene-2-sulfonyl)-2-oxo-pyrrolidin-3-yloxy]-2-trifluoromethyl-benzonitrile]	–	–	140 nM	105 nM
